In brackets after ≈: the same amount, converted by molar mass. Read-outs that look alike come from different tables or passages of the source.
Assays:
[1] = system: Streptococcus faecalis CN-478; assay: MIC by standard agar plate dilution method; assay type: cell-based; conditions: Enterococcus faecalis
From the text: The cephalosporin compound (I) of the present invention and pharmaceutically acceptable salts thereof show potent antimicrobial activity against a wide variety of microorganisms including those belonging to the genera Streptococcus (e.g., St. faecalis, St. pneumoniae), Staphylococcus (e.g., S. aureus, S. epidermidis) and Pseudomonas (e.g., Ps. aeruginosa, Ps. putida, Ps. stutzeri), and are particularly characterized by their potent antimicrobial activity against both gram-positive and gram-negative bacteria. […] The antimicrobial activity of 7β{(Z)-2-(2-aminothiazol-4-yl)-2-[(2-pyrrolidon-3-yl)oxyimino]-acetamido}-3-[(1-methyl-1H-tetrazol-5-yl)thio-methyl]-3-cephem-4-carboxylic acid against Staphylococcus aureus 252R is also more than 16 times stronger than those of Cefmenoxime and Ceftazidime. Moreover, the compound (I) and a salt thereof show potent antimicrobial activity against bacteria belonging to the genera Bacillus (e.g., B. subtilis), Escherichia (e.g., E. coli), Klebsiella (e.g., K. pneumoniae), Enterobacter (e.g., E. aerogenes, E. cloacae) and Serratia (e.g., S. marcescens).
(§1) The minimum inhibitory concentration (MIC, μg/ml) of a test compound was determined by means of a standard agar plate dilution method (based on the standard method of Japan Society of Chemotherapy). Media used in these experiments were Mueller-Hinton agar (MHA; Nissui).

[2] = system: Staphylococcus aureus 252R; assay: MIC by standard agar plate dilution method; assay type: cell-based
Method: as §1

[3] = system: Serratia marcescens 7006; assay: MIC by standard agar plate dilution method; assay type: cell-based
Method: as §1
(§2) The results are shown in the following Table 2 together with the M. I. C. (μg/ml) of the test compound which was estimated in the same manner as described in Experiment I.

[4] = system: Escherichia coli KC-14; assay: MIC by standard agar plate dilution method; assay type: cell-based; conditions: KC14, Table 2, read-out: M.I.C. (in parentheses)
Method: as §1, §2

[5] = system: Enterobacter aerogenes 816; assay: MIC by standard agar plate dilution method; assay type: cell-based
Method: as §1, §2

[6] = system: Staphylococcus aureus Smith; assay: MIC by standard agar plate dilution method; assay type: cell-based; conditions: read-out: M.I.C. (in parentheses)
Method: as §1, §2

[7] = system: Citrobacter freundii 916; assay: MIC by standard agar plate dilution method; assay type: cell-based
Method: as §1, §2

[8] = system: Bacillus subtilis ATCC 6633; assay: MIC by standard agar plate dilution method; assay type: cell-based; conditions: ATCC6633, Table 1, Mueller-Hinton agar
Method: as §1

[9] = system: Klebsiella pneumoniae 5038; assay: MIC by standard agar plate dilution method; assay type: cell-based; conditions: Table 1, Mueller-Hinton agar
Method: as §1

[10] = system: Staphylococcus aureus Terajima; assay: MIC by standard agar plate dilution method; assay type: cell-based; conditions: Table 1, Mueller-Hinton agar
Method: as §1

[11] = system: Pseudomonas aeruginosa 4096; assay: MIC by standard agar plate dilution method; assay type: cell-based; conditions: Table 1, Mueller-Hinton agar
Method: as §1

[12] = system: Enterobacter cloacae TU-680; assay: MIC by standard agar plate dilution method; assay type: cell-based; conditions: TU680, Table 1, Mueller-Hinton agar
Method: as §1

[13] = system: Pseudomonas putida ATCC 12633; assay: MIC by standard agar plate dilution method; assay type: cell-based; conditions: ATCC12633, Table 1, Mueller-Hinton agar
Method: as §1

[14] = system: Serratia marcescens 7006; assay: Protective effects on bacterial infections in mice; assay type: in vivo; conditions: 168 h
Method: (§3) Ten male mice weighing 20±1 g were used for each dose level. Mice were challenged via the intraperitoneal route with sufficient bacteria to kill all non-treated mice within 24 hours. All bacteria were suspended in 6 % mucin. A test compound were administered intramuscularly one hour after the infection. Survival ratios were determined 7 days after the infection. The median effective doses (ED50, mg/kg) of the test compound were estimated by the probito analysis.

[15] = system: Escherichia coli KC-14; assay: Protective effects on bacterial infections in mice; assay type: in vivo; conditions: KC14, im, 168 h, intramuscular one hour after intraperitoneal infection, survival at 7 days
Method: as §3

[16] = system: Enterobacter aerogenes 816; assay: Protective effects on bacterial infections in mice; assay type: in vivo; conditions: 168 h
Method: as §3

[17] = system: Staphylococcus aureus Smith; assay: Protective effects on bacterial infections in mice; assay type: in vivo; conditions: im, 168 h
Method: as §3

[18] = system: Citrobacter freundii 916; assay: Protective effects on bacterial infections in mice; assay type: in vivo; conditions: 168 h
Method: as §3

[19] = Subcutaneous administration to SD-male rats for 14 consecutive days; assay type: in vivo; conditions: dose of 1000 mg for 14 consecutive days
Method: For example, no rats die even after 7β-{(Z)-2-(2-aminothiazol-4-yl)-2-[(2-pyrrolidon-3-yl)oxyimino]acetamido}-3-(1-pyridiniomethyl)-3-cephem-4-carboxylate (l-isomer) is administered subcutaneously to SD-male rats at a dose of 1000 mg for 14 consecutive days.

[20] = CN478, agar dilution method, cultured for 20 hours at 37° C., Streptococcus faecalis CN 478, read-out: minimum inhibitory concentration (M.I.C.)
[21] = CN478, Table 1, Mueller-Hinton agar, Streptococcus faecalis CN-478, read-out: M.I.C.
[22] = Table 1, Mueller-Hinton agar, Serratia marcescens 7006, read-out: M.I.C.
[23] = Table 2, Serratia marcescens 7006, read-out: M.I.C. (in parentheses)
[24] = Klebsiella aerogenes, Table 2, Enterobacter aerogenes 816, read-out: M.I.C. (in parentheses)
[25] = Table 2, Staphylococcus aureus Smith
[26] = Table 2, Citrobacter freundii 916, read-out: M.I.C. (in parentheses)
[27] = Table 1, Mueller-Hinton agar, Staphylococcus aureus 252R, read-out: M.I.C.
[28] = im, Serratia marcescens 7006, intramuscular one hour after intraperitoneal infection, survival at 7 days, read-out: ED50
[29] = Klebsiella aerogenes, im, Enterobacter aerogenes 816, intramuscular one hour after intraperitoneal infection, survival at 7 days, read-out: ED50
[30] = Staphylococcus aureus Smith, intramuscular one hour after intraperitoneal infection, survival at 7 days, read-out: ED50
[31] = im, Citrobacter freundii 916, intramuscular one hour after intraperitoneal infection, survival at 7 days, read-out: ED50

MIC [1, 20]	Compound	MIC [1, 21]	MIC [3, 22]	MIC [3, 23]	MIC [4]	MIC [5, 24]	MIC [6, 25]	MIC [7, 26]	MIC [8]	MIC [9]	MIC [10]	MIC [11]	MIC [12]	MIC [2, 27]	MIC [13]	ED50 [14, 28]	ED50 [15]	ED50 [16, 29]	ED50 [17, 30]	ED50 [18, 31]	further results
25 mg/L (≈ 42 µM)	CN1CCC(O/N=C(\C(=O)N[C@@H]2C(=O)N3C(C(=O)O)=C(CSc4nnnn4C)CS[C@H]23)c2csc(N)n2)C1=O (stereo partly drawn) [7β-{(Z)-2-(2-aminothiazol-4-yl)-2-[(1-methyl-2-pyrrolidon-3-yl)oxyiminoacetamido}-3-[(1-methyl-1H-tetrazol-5-yl)thiomethyl]-3-cephem-4-carboxylic acid]																				
	Cn1nnnc1SCC1=C(C(=O)O)N2C(=O)[C@@H](NC(=O)/C(=N\OC3CCNC3=O)c3csc(N)n3)[C@H]2SC1 (stereo partly drawn) [7β{(Z)-2-(2-aminothiazol-4-yl)-2-[(2-pyrrolidon-3-yl)oxyimino]-acetamido}-3-[(1-methyl-1H-tetrazol-5-yl)thio-methyl]-3-cephem-4-carboxylic acid]																				antimicrobial activity stronger than those of Cefmenoxime and Ceftazidime ([2]; Staphylococcus aureus 252R, relative to Cefmenoxime and Ceftazidime): more than 16 times
> 100 mg/L	CO/N=C(\C(=O)N[C@@H]1C(=O)N2C(C(=O)O)=C(CSc3nnnn3C)CS[C@H]12)c1csc(N)n1 [Cefmenoxime, 7β-[(Z)-2-(2-aminothiazol-4-yl)-2-(methoxyimino)acetamido]-3-[(1-methyl-1H-tetrazol-5-yl)thiomethyl]-3-cephem-4-carboxylic acid]	> 100 mg/L	0.2 mg/L (≈ 0.391 µM)	0.2 mg/L (≈ 0.391 µM)	0.025 mg/L (≈ 0.0489 µM)	1.56 mg/L (≈ 3.05 µM)	1.56 mg/L (≈ 3.05 µM)	0.05 mg/L (≈ 0.0977 µM)	1.56 mg/L (≈ 3.05 µM)	0.1 mg/L (≈ 0.195 µM)	1.56 mg/L (≈ 3.05 µM)	6.25 mg/L (≈ 12.2 µM)	0.1 mg/L (≈ 0.195 µM)	> 100 mg/L	100 mg/L (≈ 195 µM)	0.88 mg/kg	0.16 mg/kg	23.9 mg/kg	5.32 mg/kg	0.19 mg/kg	
	CC(C)(O/N=C(\C(=O)N[C@@H]1C(=O)N2C(C(=O)[O-])=C(C[n+]3ccccc3)CS[C@H]12)c1csc(N)n1)C(=O)O [Ceftazidime, 7β-[(Z)-2-(2-aminothiazol-4-yl)-2-(2-carboxyprop-2-yloxyimino)acetamido]-3-(1-pyridiniomethyl)-3-cephem-4-carboxylate]				0.05 mg/L (≈ 0.0915 µM)				3.13 mg/L (≈ 5.73 µM)	0.1 mg/L (≈ 0.183 µM)	12.5 mg/L (≈ 22.9 µM)	0.78 mg/L (≈ 1.43 µM)	0.2 mg/L (≈ 0.366 µM)		12.5 mg/L (≈ 22.9 µM)		0.08 mg/kg				MIC ([1]; CN478): > 100 mg/L; MIC ([1]; CN478, 20 h, read-out: minimum inhibitory concentration (M.I.C.)): > 100 mg/L; MIC ([3]; Serratia marcescens, 7006): 0.2 mg/L (≈ 0.366 µM); MIC ([3]; Serratia marcescens, 7006, read-out: M.I.C. (in parentheses)): 0.2 mg/L (≈ 0.366 µM); MIC ([5]; Klebsiella aerogenes, 816, read-out: M.I.C. (in parentheses)): 6.25 mg/L (≈ 11.4 µM); MIC ([6]; Staphylococcus aureus): 12.5 mg/L (≈ 22.9 µM); MIC ([7]; Citrobacter freundii, 916, read-out: M.I.C. (in parentheses)): 0.39 mg/L (≈ 0.714 µM); MIC ([2]; Staphylococcus aureus, 252R): > 100 mg/L; ED50 ([14]; Serratia marcescens, 7006, im): 0.54 mg/kg; ED50 ([16]; Klebsiella aerogenes, 816, im): 26.4 mg/kg; ED50 ([17]; Staphylococcus aureus): 7.85 mg/kg; ED50 ([18]; Citrobacter freundii, 916, im): 0.15 mg/kg

Compound	MIC [1, 20]	MIC [1, 21]	MIC [3, 22]	MIC [3, 23]	MIC [4]	MIC [5, 24]	MIC [6, 25]	MIC [7, 26]	MIC [8]	MIC [9]	MIC [10]	MIC [11]	MIC [12]	MIC [2, 27]	MIC [13]	ED50 [14, 28]	ED50 [15]	ED50 [16, 29]	ED50 [17, 30]	ED50 [18, 31]	further results
Nc1nc(/C(=N/O[C@H]2CCNC2=O)C(=O)N[C@@H]2C(=O)N3C(C(=O)[O-])=C(C[n+]4ccccc4)CS[C@H]23)cs1 [Example 6, 7β-{(Z)-2-(2-aminothiazol-4-yl)-2-[(2-pyrrolidon-3-yl)oxyimino]acetamido}-3-(1-pyridiniomethyl)-3-cephem-4-carboxylate (l-isomer)]	12.5 mg/L (≈ 23 µM)	12.5 mg/L (≈ 23 µM)	≤ 0.05 mg/L	0.05 mg/L (≈ 0.092 µM)	0.05 mg/L (≈ 0.092 µM)	0.39 mg/L (≈ 0.717 µM)	1.56 mg/L (≈ 2.87 µM)	0.1 mg/L (≈ 0.184 µM)	0.2 mg/L (≈ 0.368 µM)	0.05 mg/L (≈ 0.092 µM)	0.78 mg/L (≈ 1.43 µM)	0.39 mg/L (≈ 0.717 µM)	≤ 0.05 mg/L	25 mg/L (≈ 46 µM)	1.56 mg/L (≈ 2.87 µM)	0.14 mg/kg	0.05 mg/kg	1.37 mg/kg	1.71 mg/kg	0.06 mg/kg	deaths of rats [19]: no rats die
